Data as given in PubChem BioAssay AID330 (DTP/NCI, 2004).
Several values for one entry are separate records, joined by “and”; a condition that tells them apart may be missing. Equal entries are not always repeated. Toxic doses and inconclusive results are not listed.

Test system: P388 leukemia ip, CD2F1 mice, survival T/C
Test: NCI In Vivo Anticancer Drug Screen. Data for tumor model P388 Leukemia (intraperitoneal) in CD2F1 (CDF1) mice
Conditions: endpoint: median survival time, higher = longer survival
How it was run: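 Mice carrying the transplanted tumor received test compound or vehicle. Survival was recorded in each group, and the value is the treated-group measurement divided by that of the vehicle-treated control group.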

[1] = dose: 50.0 mg/kg/injection, schedule: Q01DX005 (ip), vehicle: Klucel (hydroxypropylcellulose) (HPC)
[2] = dose: 100.0 mg/kg/injection, schedule: Q01DX005 (ip), vehicle: Klucel (hydroxypropylcellulose) (HPC)
[3] = dose: 50.0 mg/kg/injection, schedule: Q01DX009 (ip), vehicle: saline with Tween-80
[4] = dose: 100.0 mg/kg/injection, schedule: Q01DX009 (ip), vehicle: saline with Tween-80
[5] = dose: 200.0 mg/kg/injection, schedule: Q01DX009 (ip), vehicle: saline with Tween-80
[6] = dose: 25.0 mg/kg/injection, schedule: Q01DX009 (ip), vehicle: saline
[7] = dose: 60.0 mg/kg/injection, schedule: Q01DX005 (ip), vehicle: saline
[8] = dose: 120.0 mg/kg/injection, schedule: Q01DX005 (ip), vehicle: saline
[9] = dose: 240.0 mg/kg/injection, schedule: Q01DX005 (ip), vehicle: saline
[10] = dose: 100.0 mg/kg/injection, schedule: Q04DX003 (ip), vehicle: saline with Tween-80
[11] = dose: 100.0 mg/kg/injection, schedule: Q01DX001 (ip), vehicle: saline with Tween-80
[12] = dose: 6.25 mg/kg/injection, schedule: Q01DX009 (ip), vehicle: Klucel (hydroxypropylcellulose) (HPC)
[13] = dose: 25.0 mg/kg/injection, schedule: Q01DX009 (ip), vehicle: Klucel (hydroxypropylcellulose) (HPC)

Q: What does the source list for `Brc1ccc(COC2C[C@]34CC=CC[C@@]3(C2)O4)cc1` (some centres undefined)?
A: T/C [1]: 105 % of control; T/C [2]: 103 % of control; T/C (dose: 200.0 mg/kg/injection, schedule: Q01DX005 (ip), vehicle: Klucel (hydroxypropylcellulose) (HPC)): 105 % of control

Q: What does the source list for `C=C(c1ccc(OC)cc1)c1ccc(OC)cc1`?
A: T/C [3]: 103 % of control; T/C [4]: 105 % of control; T/C [5]: 102 % of control

Q: Which results are given for `[O-][n+]1cccc(O)c1`?
A: T/C [6]: 100 % of control and 102 % of control; T/C (dose: 50.0 mg/kg/injection, schedule: Q01DX009 (ip), vehicle: saline): 102 % of control and 108 % of control; T/C (dose: 100.0 mg/kg/injection, schedule: Q01DX009 (ip), vehicle: saline): 102 % of control and 92 % of control; T/C (dose: 200.0 mg/kg/injection, schedule: Q01DX009 (ip), vehicle: saline): 100 % of control and 108 % of control; T/C (dose: 400.0 mg/kg/injection, schedule: Q01DX009 (ip), vehicle: saline): 103 % of control and 97 % of control; T/C (dose: 600.0 mg/kg/injection, schedule: Q01DX009 (ip), vehicle: saline): 108 % of control and 117 % of control

Q: Which T/C (dose: 25.0 mg/kg/injection, schedule: Q04DX003 (ip), vehicle: saline sonified) does the source give for `O=C1NCN(c2ccccc2)C12CCNCC2` here?
A: The T/C was 109 % of control.

Q: And the T/C (dose: 50.0 mg/kg/injection, schedule: Q04DX003 (ip), vehicle: saline sonified)?
A: Its T/C is 109 % of control.

Q: And the T/C (dose: 100.0 mg/kg/injection, schedule: Q04DX003 (ip), vehicle: saline sonified)?
A: The T/C was 95 % of control.

Q: Which T/C [1] does the source give for `COc1ccc2c(c1O)C13CCN(C)[C@@H](C2)C12CC2/C(=N/O)[C@H]3OC(C)=O` (some centres undefined) here?
A: The T/C was 92 % of control.

Q: What about the T/C [2] of the same compound?
A: The T/C was 97 % of control.

Q: `CCc1cc(-c2cc(CC)[nH]n2)n[nH]1` was tested. Which T/C [7] did it give?
A: The T/C was 100 % of control.

Q: What about the T/C [8] of the same compound?
A: The T/C was 97 % of control.

Q: And the T/C [9]?
A: The T/C was 95 % of control.

Q: Which T/C (dose: 25.0 mg/kg/injection, schedule: Q01DX009 (ip), vehicle: saline with Tween-80) does the source give for `CN1CCN(CCCN2c3ccccc3Sc3ccc(C(F)(F)F)cc32)CC1` here?
A: The T/C was 109 % of control.

Q: And the T/C [3]?
A: The T/C was 118 % of control.

Q: What about the T/C (dose: 66.0 mg/kg/injection, schedule: Q04DX003 (ip), vehicle: saline with Tween-80) of the same compound?
A: Its T/C is 163 % of control.

Q: What about the T/C [10] of the same compound?
A: The T/C was 150 % of control.

Q: `Cc1ncc(COP(=O)(O)O)c(C2NCCS2)c1O` (centres undefined) was tested. Which T/C [7] did it give?
A: The T/C was 102 % of control.

Q: And the T/C [8]?
A: Its T/C is 105 % of control.

Q: What about the T/C [9] of the same compound?
A: Its T/C is 102 % of control.

Q: How did the T/C [11] turn out when `CCn1c2ccc(NC(=O)OC(C)C)cc2c2c3[nH]c(=O)c4cccn4c3ccc21` was run?
A: Its T/C is 87 % of control.

Q: And the T/C (dose: 200.0 mg/kg/injection, schedule: Q01DX001 (ip), vehicle: saline with Tween-80)?
A: The T/C was 87 % of control.

Q: And the T/C (dose: 400.0 mg/kg/injection, schedule: Q01DX001 (ip), vehicle: saline with Tween-80)?
A: The T/C was 92 % of control.

Q: `CN=C(NC)c1ccc(NC(=O)c2cc(Cl)cc(C(=O)Nc3ccc(C(=NC)NC)cc3)c2)cc1` was tested. Which T/C (dose: 6.25 mg/kg/injection, schedule: Q01DX005 (ip), vehicle: saline) did it give?
A: The T/C was 98 % of control.

Q: What about the T/C (dose: 12.5 mg/kg/injection, schedule: Q01DX005 (ip), vehicle: saline) of the same compound?
A: The T/C was 113 % of control.

Q: What about the T/C (dose: 25.0 mg/kg/injection, schedule: Q01DX005 (ip), vehicle: saline) of the same compound?
A: Its T/C is 118 % of control.

Q: For `CSc1nc(NC(C)C)nc(NC(C)C)n1`, which T/C (dose: 50.0 mg/kg/injection, schedule: Q04DX003 (ip), vehicle: saline with Tween-80) is on record?
A: Its T/C is 100 % of control.

Q: What about the T/C [10] of the same compound?
A: Its T/C is 91 % of control.

Q: What does the source list for `C=C1C(=O)OC2C3OC(C)(CCC(O)C3COC(C)=O)CC(OC(=O)/C(=C/C)COC(C)=O)C12` (centres undefined)?
A: T/C (dose: 0.75 mg/kg/injection, schedule: Q01DX009 (ip), vehicle: saline): 116 % of control and 118 % of control; T/C (dose: 0.78 mg/kg/injection, schedule: Q01DX009 (ip), vehicle: Klucel (hydroxypropylcellulose) (HPC)): 99 % of control; T/C (dose: 1.5 mg/kg/injection, schedule: Q01DX009 (ip), vehicle: saline): 100 % of control and 111 % of control; T/C (dose: 1.56 mg/kg/injection, schedule: Q01DX009 (ip), vehicle: Klucel (hydroxypropylcellulose) (HPC)): 113 % of control; T/C (dose: 3.0 mg/kg/injection, schedule: Q01DX009 (ip), vehicle: saline): 101 % of control and 106 % of control; T/C (dose: 3.12 mg/kg/injection, schedule: Q01DX009 (ip), vehicle: Klucel (hydroxypropylcellulose) (HPC)): 105 % of control; T/C [12]: 97 % of control

Q: With `CCOP(=O)(OCC)SCSC(C)C` as the compound, how does the T/C (dose: 0.04 mg/kg/injection, schedule: Q01DX009 (ip), vehicle: Klucel (hydroxypropylcellulose) (HPC)) read?
A: The T/C was 102 % of control.

Q: What about the T/C (dose: 0.09 mg/kg/injection, schedule: Q01DX009 (ip), vehicle: Klucel (hydroxypropylcellulose) (HPC)) of the same compound?
A: The T/C was 102 % of control.

Q: What about the T/C (dose: 0.19 mg/kg/injection, schedule: Q01DX009 (ip), vehicle: Klucel (hydroxypropylcellulose) (HPC)) of the same compound?
A: The T/C was 108 % of control.

Q: What does the source list for `CCN(CC)C1=NS(=O)(=O)c2ccccc2C(NN)=C1C`?
A: T/C [12]: 90 % of control; T/C (dose: 12.5 mg/kg/injection, schedule: Q01DX009 (ip), vehicle: Klucel (hydroxypropylcellulose) (HPC)): 90 % of control; T/C [13]: 104 % of control; T/C (dose: 100.0 mg/kg/injection, schedule: Q04DX002 (ip), vehicle: saline with Tween-80): 92 % of control; T/C (dose: 200.0 mg/kg/injection, schedule: Q04DX002 (ip), vehicle: saline with Tween-80): 99 % of control; T/C (dose: 400.0 mg/kg/injection, schedule: Q04DX002 (ip), vehicle: saline with Tween-80): 97 % of control

Q: Which T/C (dose: 10.0 mg/kg/injection, schedule: Q01DX009 (ip), vehicle: saline with Tween-80) does the source give for `ClC(Cl)Oc1ccccc1` here?
A: The T/C was 97 % of control.

Q: What about the T/C (dose: 20.0 mg/kg/injection, schedule: Q01DX009 (ip), vehicle: saline with Tween-80) of the same compound?
A: The T/C was 106 % of control.

Q: And the T/C (dose: 40.0 mg/kg/injection, schedule: Q01DX009 (ip), vehicle: saline with Tween-80)?
A: Its T/C is 103 % of control.

Q: How did the T/C (dose: 50.0 mg/kg/injection, schedule: Q01DX005 (ip), vehicle: saline) turn out when `Cc1cn(CCCSCC2OC3OC4C(CO)OC(OC5C(CO)OC(OC6C(CO)OC(OC7C(CO)OC(OC8C(CO)OC(OC9C(CO)OC(OC2C(O)C3O)C(O)C9O)C(O)C8O)C(O)C7O)C(O)C6O)C(O)C5O)C(O)C4O)c(=O)[nH]c1=O` (centres undefined) was run?
A: The T/C was 103 % of control.

Q: And the T/C (dose: 100.0 mg/kg/injection, schedule: Q01DX005 (ip), vehicle: saline)?
A: The T/C was 100 % of control.

Q: And the T/C (dose: 200.0 mg/kg/injection, schedule: Q01DX005 (ip), vehicle: saline)?
A: The T/C was 98 % of control.

Q: With `CCCCn1c2nc(=O)n(C)c(=O)c-2cc2ccccc21` as the compound, how does the T/C [3] read?
A: The T/C was 110 % of control and 90 % of control.

Q: And the T/C (dose: 66.0 mg/kg/injection, schedule: Q01DX009 (ip), vehicle: saline with Tween-80)?
A: Its T/C is 103 % of control.

Q: What about the T/C [4] of the same compound?
A: The T/C was 102 % of control.

Q: What about the T/C (dose: 150.0 mg/kg/injection, schedule: Q01DX009 (ip), vehicle: saline with Tween-80) of the same compound?
A: Its T/C is 103 % of control.

Q: And the T/C [5]?
A: Its T/C is 120 % of control and 98 % of control.

Q: Which results are given for `CCCCCCCCCCCCNC(=O)NCC(=O)OCC`?
A: T/C [13]: 91 % of control; T/C (dose: 50.0 mg/kg/injection, schedule: Q01DX009 (ip), vehicle: Klucel (hydroxypropylcellulose) (HPC)): 100 % of control; T/C (dose: 100.0 mg/kg/injection, schedule: Q01DX009 (ip), vehicle: Klucel (hydroxypropylcellulose) (HPC)): 103 % of control; T/C (dose: 200.0 mg/kg/injection, schedule: Q01DX009 (ip), vehicle: Klucel (hydroxypropylcellulose) (HPC)): 89 % of control

Q: Which results are given for `CC(=O)OCC(=O)[C@@]1(O)CC[C@H]2[C@@H]3CCC4=CC(=O)[C@H](C)C[C@]4(C)[C@H]3[C@@H](O)C[C@@]21C`?
A: T/C (dose: 100.0 mg/kg/injection, schedule: Q04DX003 (ip), vehicle: other): 100 % of control; T/C (dose: 200.0 mg/kg/injection, schedule: Q04DX003 (ip), vehicle: other): 100 % of control; T/C (dose: 400.0 mg/kg/injection, schedule: Q04DX003 (ip), vehicle: other): 115 % of control

Q: For `Fc1ccc2[nH]cc(C3CCCN4CCCCC34)c2c1` (centres undefined), which T/C (dose: 12.5 mg/kg/injection, schedule: Q01DX001 (ip), vehicle: saline with Tween-80) is on record?
A: The T/C was 95 % of control.

Q: And the T/C (dose: 25.0 mg/kg/injection, schedule: Q01DX001 (ip), vehicle: saline with Tween-80)?
A: Its T/C is 101 % of control.

Q: What about the T/C (dose: 50.0 mg/kg/injection, schedule: Q01DX001 (ip), vehicle: saline with Tween-80) of the same compound?
A: The T/C was 102 % of control.

Q: And the T/C [11]?
A: Its T/C is 101 % of control.

Q: With `CCCCCCCC/C=C\CCCCCCCC(=O)NCCCN(C)C` as the compound, how does the T/C (dose: 12.5 mg/kg/injection, schedule: Q01DX009 (ip), vehicle: saline) read?
A: Its T/C is 98 % of control.

Q: What about the T/C [6] of the same compound?
A: The T/C was 91 % of control.

Q: And the T/C [3]?
A: Its T/C is 112 % of control.

Q: With `CC/C(=N/N(C)C)C(=O)O` as the compound, how does the T/C [7] read?
A: The T/C was 102 % of control.

Q: And the T/C [8]?
A: Its T/C is 105 % of control.

Q: And the T/C [9]?
A: The T/C was 98 % of control.
